According to patent US11524968B2, “Heterocyclic compound as a protein kinase inhibitor” (HK inno.N Corporation, priority 2017, dated 2022):

Molecular target: JAK1 (Homo sapiens (Human), UniProt P23458)
Experiment: Analysis of JAK1 activity inhibition ability (ADP-Glo Kinase Assay)
Type: biochemical
Conditions: JAK1 enzyme, ADP-Glo luminescence, ATP 250 uM, IRS-itide substrate, 30° C. 40 minutes; read-out: IC50
Outline: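 JAK1 enzyme, IRS-itide substrate (40 ng/mL) and 250 uM ATP, both as prepared in kinase buffer (Tris-HCl pH 7.5, MgCl2, BSA, DTT), reacted with compound 40 min at 30 °C. ADP formed was detected by ADP-Glo luminescence; IC50 is the concentration giving 50% inhibition versus control.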

Chain of JAK1 (P23458 whole entry): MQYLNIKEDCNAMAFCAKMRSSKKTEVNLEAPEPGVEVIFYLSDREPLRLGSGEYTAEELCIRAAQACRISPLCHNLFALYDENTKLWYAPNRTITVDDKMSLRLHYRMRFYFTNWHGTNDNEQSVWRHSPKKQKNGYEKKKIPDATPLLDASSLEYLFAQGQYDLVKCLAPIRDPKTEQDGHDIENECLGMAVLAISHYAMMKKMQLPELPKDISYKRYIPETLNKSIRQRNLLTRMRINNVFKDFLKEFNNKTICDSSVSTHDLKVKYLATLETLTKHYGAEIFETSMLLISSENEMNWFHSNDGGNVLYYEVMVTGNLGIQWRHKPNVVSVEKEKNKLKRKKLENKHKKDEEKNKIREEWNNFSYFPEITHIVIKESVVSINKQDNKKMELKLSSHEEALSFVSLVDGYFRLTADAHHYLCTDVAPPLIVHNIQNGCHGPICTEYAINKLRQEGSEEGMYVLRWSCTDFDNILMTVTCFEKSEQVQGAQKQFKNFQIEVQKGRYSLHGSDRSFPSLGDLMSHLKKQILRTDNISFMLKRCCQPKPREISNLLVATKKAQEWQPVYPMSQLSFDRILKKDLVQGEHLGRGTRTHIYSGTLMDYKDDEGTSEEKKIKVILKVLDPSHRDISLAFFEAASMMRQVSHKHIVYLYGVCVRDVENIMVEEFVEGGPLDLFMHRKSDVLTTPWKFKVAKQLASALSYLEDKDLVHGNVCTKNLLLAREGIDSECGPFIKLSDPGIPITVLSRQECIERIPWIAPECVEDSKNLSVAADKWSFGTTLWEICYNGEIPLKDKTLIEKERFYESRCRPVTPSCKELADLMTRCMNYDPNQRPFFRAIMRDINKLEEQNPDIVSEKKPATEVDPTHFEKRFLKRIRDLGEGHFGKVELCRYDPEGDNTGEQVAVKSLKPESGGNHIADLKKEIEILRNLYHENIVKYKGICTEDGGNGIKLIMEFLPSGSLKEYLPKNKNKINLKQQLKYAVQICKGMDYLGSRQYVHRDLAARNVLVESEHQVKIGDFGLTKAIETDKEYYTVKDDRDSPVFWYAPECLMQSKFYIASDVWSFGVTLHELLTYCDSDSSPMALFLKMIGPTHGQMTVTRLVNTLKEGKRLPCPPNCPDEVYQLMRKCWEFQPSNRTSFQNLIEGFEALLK

SMILES	IC50
O=C(Nc1cc(-c2ccc(NC3CN(C(=O)Nc4ccc(F)cc4F)C3)cc2)c2cc[nH]c2n1)C1CC1 [Example 513, 3-((4-(6-(cyclopropanecarboxamido)-1H-pyrrolo[2,3-b]pyridin-4-yl)phenyl)amino)-N-(2,4-difluorophenyl)azetidine-1-carboxamide]	> 200 nM
N#CCC(=O)N1CC(Nc2ccc(-c3cc(NC(=O)C4CC4)nc4[nH]ccc34)cc2)C1 [Example 515, N-(4-(4-((1-(2-cyanoacetyl)azetidin-3-yl)amino)phenyl)-1H-pyrrolo[2,3-b]pyridin-6-yl)cyclopropanecarboxamide]	20 to 200 nM
O=C(Nc1cc(-c2ccc(C(=O)N3CCS(=O)(=O)CC3)cc2)c2cc[nH]c2n1)C1CC1 [Example 520, N-(4-(4-(1,1-dioxidothiomorpholine-4-carbonyl)phenyl)-1H-pyrrolo[2,3-b]pyridin-6-yl)cyclopropanecarboxamide]	> 200 nM
O=C(Nc1cc(-c2ccc(C(=O)N3CCSCC3)cc2)c2cc[nH]c2n1)C1CC1 [Example 521, N-(4-(4-(thiomorpholine-4-carbonyl)phenyl)-1H-pyrrolo[2,3-b]pyridin-6-yl)cyclopropanecarboxamide]	20 to 200 nM
O=C(NCC(F)(F)F)c1ccc(-c2cc(NC(=O)C3CC3)nc3[nH]ccc23)cc1 [Example 524, 4-(6-(cyclopropanecarboxamido)-1H-pyrrolo[2,3-b]pyridin-4-yl)-N-(2,2,2-trifluoroethyl)benzamide]	< 20 nM
Cc1cc(C(=O)NCC#N)ccc1-c1cc(NC(=O)C2CC2)nc2[nH]ccc12 [Example 526, N-(cyanomethyl)-4-(6-(cyclopropanecarboxamido)-1H-pyrrolo[2,3-b]pyridin-4-yl)-3-methylbenzamide]	20 to 200 nM
Cc1cc(C(=O)N(C)CC#N)ccc1-c1cc(NC(=O)C2CC2)nc2[nH]ccc12 [Example 527, N-(cyanomethyl)-4-(6-(cyclopropanecarboxamido)-1H-pyrrolo[2,3-b]pyridin-4-yl)-N,3-dimethylbenzamide]	> 200 nM
N#CCNC(=O)C1CC=C(c2cc(NC(=O)C3CC3)nc3[nH]ccc23)CC1 (stereo not shown) [Example 530, N-(cyanomethyl)-4-(6-(cyclopropanecarboxamido)-1H-pyrrolo[2,3-b]pyridin-4-yl)cyclohex-3-ene-1-carboxamide]	20 to 200 nM
CNS(=O)(=O)Cc1ccc(-c2cc(NC(=O)C3CC3)nc3[nH]ccc23)cc1 [Example 533, N-(4-(4-((N-methylsulfamoyl)methyl)phenyl)-1H-pyrrolo[2,3-b]pyridin-6-yl)cyclopropanecarboxamide]	20 to 200 nM
O=C(Nc1cc(-c2ccc(CS(=O)(=O)N3CCOCC3)cc2)c2cc[nH]c2n1)C1CC1 [Example 534, N-(4-(4-((morpholinosulfonyl)methyl)phenyl)-1H-pyrrolo[2,3-b]pyridin-6-yl)cyclopropanecarboxamide]	> 200 nM
O=C(Cc1ccc(-c2cc(NC(=O)C3CC3)nc3[nH]ccc23)cc1)NCC(F)(F)F [Example 537, N-(4-(4-(2-oxo-2-((2,2,2-trifluoroethyl)amino)ethyl)phenyl)-1H-pyrrolo[2,3-b]pyridin-6-yl)cyclopropanecarboxamide]	20 to 200 nM
O=C(Cc1ccc(-c2cc(NC(=O)C3CC3)nc3[nH]ccc23)cc1)NC1CCS(=O)(=O)C1 (stereo not shown) [Example 538, N-(4-(4-(2-((1,1-dioxidotetrahydrothiophen-3-yl)amino)-2-oxoethyl)phenyl)-1H-pyrrolo[2,3-b]pyridin-6-yl)cyclopropanecarboxamide]	20 to 200 nM
CN(C)C(=O)Cc1ccc(-c2cc(NC(=O)C3CC3)nc3[nH]ccc23)cc1 [Example 540, N-(4-(4-(2-(dimethylamino)-2-oxoethyl)phenyl)-1H-pyrrolo[2,3-b]pyridin-6-yl)cyclopropanecarboxamide]	20 to 200 nM
CCNC(=O)Cc1ccc(-c2cc(NC(=O)C3CC3)nc3[nH]ccc23)cc1 [Example 541, N-(4-(4-(2-(ethylamino)-2-oxoethyl)phenyl)-1H-pyrrolo[2,3-b]pyridin-6-yl)cyclopropanecarboxamide]	20 to 200 nM
CC(=O)N1CCN(C(=O)Cc2ccc(-c3cc(NC(=O)C4CC4)nc4[nH]ccc34)cc2)CC1 [Example 543, N-(4-(4-(2-(4-acetylpiperazin-1-yl)-2-oxoethyl)phenyl)-1H-pyrrolo[2,3-b]pyridin-6-yl)cyclopropanecarboxamide]	> 200 nM
Cc1cc(CC(=O)N2CCS(=O)(=O)CC2)ccc1-c1cc(NC(=O)C2CC2)nc2[nH]ccc12 [Example 545, N-(4-(4-(2-(1,1-dioxidothiomorpholino)-2-oxoethyl)-2-methylphenyl)-1H-pyrrolo[2,3-b]pyridin-6-yl)cyclopropanecarboxamide]	20 to 200 nM
O=C(Nc1cc(-c2ccc(CC(=O)N3CCC3)cc2)c2cc[nH]c2n1)C1CC1 [Example 546, N-(4-(4-(2-(azetidin-1-yl)-2-oxoethyl)phenyl)-1H-pyrrolo[2,3-b]pyridin-6-yl)cyclopropanecarboxamide]	20 to 200 nM

The next lines start with the values.

IC50	SMILES
> 200 nM	O=C(Nc1cc(-c2ccc(NC3CN(C(=O)NCC(F)(F)F)C3)cc2)c2cc[nH]c2n1)C1CC1 [Example 514, 3-((4-(6-(cyclopropanecarboxamido)-1H-pyrrolo[2,3-b]pyridin-4-yl)phenyl)amino)-N-(2,2,2-trifluoroethyl)azetidine-1-carboxamide]
20 to 200 nM	N#CCC(=O)N1CCC(Nc2ccc(-c3cc(NC(=O)C4CC4)nc4[nH]ccc34)cc2)CC1 [Example 516, N-(4-(4-((1-(2-cyanoacetyl)piperidin-4-yl)amino)phenyl)-1H-pyrrolo[2,3-b]pyridin-6-yl)cyclopropanecarboxamide]
20 to 200 nM	O=C(Nc1cc(-c2ccc(NC3CN(C(=O)CC(F)(F)F)C3)cc2)c2cc[nH]c2n1)C1CC1 [Example 517, N-(4-(4-((1-(3,3,3-trifluoropropanoyl)azetidin-3-yl)amino)phenyl)-1H-pyrrolo[2,3-b]pyridin-6-yl)cyclopropanecarboxamide]
> 200 nM	O=C(Nc1cc(-c2ccc(NC3CCN(C(=O)CC(F)(F)F)CC3)cc2)c2cc[nH]c2n1)C1CC1 [Example 518, N-(4-(4-((1-(3,3,3-trifluoropropanoyl)piperidin-4-yl)amino)phenyl)-1H-pyrrolo[2,3-b]pyridin-6-yl)cyclopropanecarboxamide]
> 200 nM	N#CCC(=O)c1ccc(-c2cc(NC(=O)C3CC3)nc3[nH]ccc23)cc1 [Example 519, N-(4-(4-(2-cyanoacetyl)phenyl)-1H-pyrrolo[2,3-b]pyridin-6-yl)cyclopropanecarboxamide]
20 to 200 nM	Cc1cc(C(=O)N2CCOCC2)ccc1-c1cc(NC(=O)C2CC2)nc2[nH]ccc12 [Example 522, N-(4-(2-methyl-4-(morpholine-4-carbonyl)phenyl)-1H-pyrrolo[2,3-b]pyridin-6-yl)cyclopropanecarboxamide]
< 20 nM	N#CCNC(=O)c1ccc(-c2cc(NC(=O)C3CC3)nc3[nH]ccc23)cc1 [Example 523, N-(cyanomethyl)-4-(6-(cyclopropanecarboxamido)-1H-pyrrolo[2,3-b]pyridin-4-yl)benzamide]
20 to 200 nM	Cc1cc(C(=O)NCC(F)(F)F)ccc1-c1cc(NC(=O)C2CC2)nc2[nH]ccc12 [Example 525, 4-(6-(cyclopropanecarboxamido)-1H-pyrrolo[2,3-b]pyridin-4-yl)-3-methyl-N-(2,2,2-trifluoroethyl)benzamide]
20 to 200 nM	N#CCNC(=O)c1ccc(-c2cc(NC(=O)C3CC3)nc3[nH]ccc23)cc1F [Example 528, N-(cyanomethyl)-4-(6-(cyclopropanecarboxamido)-1H-pyrrolo[2,3-b]pyridin-4-yl)-2-fluorobenzamide]
20 to 200 nM	N#CCNC(=O)c1c(F)cc(-c2cc(NC(=O)C3CC3)nc3[nH]ccc23)cc1F [Example 529, N-(cyanomethyl)-4-(6-(cyclopropanecarboxamido)-1H-pyrrolo[2,3-b]pyridin-4-yl)-2,6-difluorobenzamide]
20 to 200 nM	O=C(NCC(F)(F)F)C1CC=C(c2cc(NC(=O)C3CC3)nc3[nH]ccc23)CC1 (stereo not shown) [Example 531, 4-(6-(cyclopropanecarboxamido)-1H-pyrrolo[2,3-b]pyridin-4-yl)-N-(2,2,2-trifluoroethyl)cyclohex-3-ene-1-carboxamide]
20 to 200 nM	N#CCCNC(=O)C1CC=C(c2cc(NC(=O)C3CC3)nc3[nH]ccc23)CC1 (stereo not shown) [Example 532, N-(2-cyanoethyl)-4-(6-(cyclopropanecarboxamido)-1H-pyrrolo[2,3-b]pyridin-4-yl)cyclohex-3-ene-1-carboxamide]
20 to 200 nM	O=C(Nc1cc(-c2ccc(CC(=O)N3CCS(=O)(=O)CC3)cc2)c2cc[nH]c2n1)C1CC1 [Example 535, N-(4-(4-(2-(1,1-dioxidothiomorpholino)-2-oxoethyl)phenyl)-1H-pyrrolo[2,3-b]pyridin-6-yl)cyclopropanecarboxamide]
20 to 200 nM	O=C(Nc1cc(-c2ccc(CC(=O)N3CCOCC3)cc2)c2cc[nH]c2n1)C1CC1 [Example 536, N-(4-(4-(2-morpholino-2-oxoethyl)phenyl)-1H-pyrrolo[2,3-b]pyridin-6-yl)cyclopropanecarboxamide]
20 to 200 nM	CNC(=O)Cc1ccc(-c2cc(NC(=O)C3CC3)nc3[nH]ccc23)cc1 [Example 539, N-(4-(4-(2-(methylamino)-2-oxoethyl)phenyl)-1H-pyrrolo[2,3-b]pyridin-6-yl)cyclopropanecarboxamide]
< 20 nM	CS(=O)(=O)N1CCN(C(=O)Cc2ccc(-c3cc(NC(=O)C4CC4)nc4[nH]ccc34)cc2)CC1 [Example 542, N-(4-(4-(2-(4-(methylsulfonyl)piperazin-1-yl)-2-oxoethyl)phenyl)-1H-pyrrolo[2,3-b]pyridin-6-yl)cyclopropanecarboxamide]
20 to 200 nM	O=C(Cc1ccc(-c2cc(NC(=O)C3CC3)nc3[nH]ccc23)cc1)Nc1ccon1 [Example 544, N-(4-(4-(2-(isoxazol-3-ylamino)-2-oxoethyl)phenyl)-1H-pyrrolo[2,3-b]pyridin-6-yl)cyclopropanecarboxamide]
